Bridges are numbered along the chain shown (N, C = ends). Where no end group is shown, it is not given here.
Tests used:
glioma F98 cells = experiment: Cell penetration of Cy5-labeled peptides by flow cytometry (FACS); assay type: cell-based, rat; conditions: 2 h; for fold decrease in cell penetration efficacy relative to MCaUF1-9-C-Cy5: 3 µM, flow cytometry
Procedure: Undifferentiated malignant glioma rat (F98) cell line (from ATCC) was maintained at 37 °C in 5% CO2 in DMEM/F-12 nutrient medium (Invitrogen, Cergy Pontoise, France) supplemented with 2% (v/v) heat-inactivated fetal bovine serum (Invitrogen) and 100 µg/mL streptomycine and 100 units/mL penicillin (Invitrogen).
F98 cells were incubated with various concentrations of Cy5-labeled peptides in DMEM/F-12 culture medium without serum at 37 °C for 2 h. The cells were then washed with PBS to remove excess extracellular peptide and treated with 0.48 mM versene (Invitrogen) for 5 min at 37 °C to detach cells from the surface, and centrifuged at 200 g in DMEM/F-12 culture medium before suspension in PBS. For experiments concerning endocytosis inhibitors, F98 cells were initially preincubated in DMEM/F-12 culture medium without serum for 30 min at 37 °C with different inhibitors of endocytosis: (i) 100 µM amiloride, (ii) 5 µg/mL cytochalasin D (10 µM), (iii) 20 µM nocodazole, or (iv) 5 mM methyl-β-cyclodextrin (all from Sigma, Lyon, France). The cells were then incubated for 2 h at 37 °C with 1 µM MCaUF1-9-C-Cy5 in the presence of each drug. Flow cytometry analyses were performed with live cells using an Accuri C6 flow cytometer (BD Biosciences, Le Pont de Claix, France). Data were obtained and analyzed using CFlow Sampler (BD Biosciences). Live cells were gated by forward/side scattering from a total of 10,000 events.

[1] = cited from earlier work
Description: Even if the mechanism(s) of penetration of CPP are subject to debate, because of the rapidity of action of MCa on the ryanodine receptor, it appears clearly that one way of penetration of MCa can be membrane translocation. Furthermore, MCa has the ability to bind onto glycosaminoglycans, including heparin and heparan sulfates, with micromolar affinity.

[2] = high temperatures up to 100 °C or extreme pH values; cited from earlier work
Description: Maurocalcine (MCa) is a 33 amino acid residue peptide that was isolated in 2000 from the venom of the Tunisian chactid scorpion Scorpio maurus palmatus. It folds according to an ‘Inhibitor Cystine Knot’ (ICK) motif and contains three disulfide bridges connected by the following pattern: C1-C4, C2-C5 and C3-C6 [3]. Based on high amino acid sequence and pharmacological target similarities, MCa belongs to a larger family of scorpion toxins that also includes imperatoxin A (from Pandinus imperator), opicalcine 1 and opicalcine 2 (from Opistophthalmus carinatus), hemicalci ...

Substance | fold decrease in cell penetration efficacy relative to MCaUF1-9-C-Cy5 (glioma F98 cells) [fold] | cell penetration compared with TAT-C-Cy5 as standard (glioma F98 cells; dose-response by flow cytometry) | affinity of binding onto glycosaminoglycans [1] | stability of structure against denaturation [2]
MCaUF1-9(A3)-C-Cy5: Abu3 replaced by Ala | 1.08 |  |  | 
MCaUF1-9(Q3)-C-Cy5: Abu3 replaced by Gln | 2.94 | behaved similarly to TAT |  | 
Maurocalcine (GDCLPHLKLCKENKDCCSKKCKRRGTNIEKRCR; disulfide 10-21, 16-32, 3-17; UniProt P60254 1-33, looked up) [MCa] |  |  | micromolar | cannot be denatured

Source: paper PMC3816693, “Cell Penetration Properties of a Highly Efficient Mini Maurocalcine Peptide” (Pharmaceuticals, 2013)
